IC50 data for 25 compounds are collected here from PubChem BioAssay AID624167 (Sanford-Burnham Center for Chemical Genomics, 2012).

pIC50: −log10 of the molar value. The source made the active and inactive calls.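 The calls were made as follows: active = mean IC50 for reducing PEG3 promoter reporter signal at or below a set limit, with IC50 above the limit in both counter screens; inactive = the rest, including counter screen hits.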 Bounds are passed on as bounds.

Assay [1] has as its target PEG-3 (UniProt Q6IN02). In words: inhibition of PEG-3 promoter-driven reporter – cell-based, HeLa, luciferase, CREF/GAPDH counter-screen panel, dose response (AID 624167). Particulars: HeLa PEG-Prom luciferase reporter, overnight, CREF/GAPDH counter-screens, mean of runs. For orientation: Counterscreens check selectivity or assay interference.
The subject of assay [2] is PEG-3. The description is as above. Particulars: HeLa PEG-Prom luciferase reporter, overnight, CREF/GAPDH counter-screens.
[3] abbreviates: run 1, dose range 1, individual replicate IC50 per panel.
The mark [4] stands for this setting: run 2, dose range 1, individual replicate IC50 per panel.

PEG-3 (UniProt Q6IN02), sequence (Q6IN02 whole entry, looked up): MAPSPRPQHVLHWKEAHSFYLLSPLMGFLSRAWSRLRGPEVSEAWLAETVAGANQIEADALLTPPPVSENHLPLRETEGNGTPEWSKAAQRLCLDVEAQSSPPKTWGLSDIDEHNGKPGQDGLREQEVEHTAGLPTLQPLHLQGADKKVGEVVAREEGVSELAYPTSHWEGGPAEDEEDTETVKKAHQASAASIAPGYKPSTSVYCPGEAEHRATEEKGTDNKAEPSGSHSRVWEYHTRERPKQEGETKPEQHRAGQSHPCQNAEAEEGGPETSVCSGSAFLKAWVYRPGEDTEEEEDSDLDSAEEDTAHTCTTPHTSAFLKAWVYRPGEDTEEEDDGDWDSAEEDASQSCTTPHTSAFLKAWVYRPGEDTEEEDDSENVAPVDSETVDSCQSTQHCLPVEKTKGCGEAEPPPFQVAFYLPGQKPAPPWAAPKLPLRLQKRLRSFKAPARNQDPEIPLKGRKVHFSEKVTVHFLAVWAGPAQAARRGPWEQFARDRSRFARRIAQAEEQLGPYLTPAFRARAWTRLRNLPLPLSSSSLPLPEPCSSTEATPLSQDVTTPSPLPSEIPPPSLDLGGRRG

As usually defined, the pIC50 is the negative decadic logarithm of the IC50, by convention in mol/L. As for `Nc1c(C(=O)Nc2cccc(C(=O)O)c2)sc2nc3c(cc12)CCCC3`, the results for the pIC50 in assay [1], in assay [2] (setting [3]) and in assay [2] (setting [4]) were 4.95, 5.36 and 4.74, respectively.
Usually IC50 stands for the concentration needed to halve the response being measured. Take `COc1ccccc1CCNC(=O)C1CCN(c2nnc(C)c3c(C)n(-c4ccc(C)cc4)nc23)CC1`: the IC50 entry in assay [1] was “inactive”. Besides, the negative-log IC50 (pIC50) in assay [2] (setting [3]) is 4.71; in assay [2] (setting [4]) it was 4.62.
For `COc1ccc(-c2nsc3c(N4CCCCC4C)ncnc23)cc1` (stereo not given), the negative-log IC50 (pIC50) in assay [1] is 4.80; in assay [2] (setting [3]), 4.76; in assay [2] (setting [4]), 4.85.
For `Cc1nn(-c2ccccc2)c2c1C(c1ccc([N+](=O)[O-])cc1)N1C(=N2)C(=O)Nc2ccccc21` (stereo not given), the IC50 in assay [1] was > 100 µM (inactive). Moreover, the negative logarithm of the IC50 (pIC50) in assay [2] (setting [3]) and in assay [2] (setting [4]) was less than 4.00 in each case.
On to `Cc1cc(C)c2sc(N(CCCN(C)C)C(=O)c3ccc(S(=O)(=O)N(C)C4CCCCC4)cc3)nc2c1`, for which the negative logarithm of the IC50 (pIC50) in assay [1] was 4.80; in assay [2] (setting [3]), 4.72; in assay [2] (setting [4]) it was 4.89.
The matching figures for `CC(C)CC(N)c1csc(NC(=O)Nc2ccccc2C(C)C)n1` (stereo not given): 4.80, 4.52 and 5.86.
With `CC(=O)NC(c1ccc(C)cc1)c1cc(Cl)c2cccnc2c1O` (stereo not given), in assay [1], the IC50 entry was “inactive”. Besides, the negative-log IC50 (pIC50) is 5.49 in assay [2] (setting [3]) and less than 4.00 in assay [2] (setting [4]).
On to `COc1ccc(CN(C)C(=O)c2cc(-c3ccc(C)cc3C)nc3ccccc23)c(OC)c1OC`, for which the negative logarithm of the IC50 (pIC50) in assay [1] is 4.70; in assay [2] (setting [3]) it was 4.83; in assay [2] (setting [4]), 4.61.
As for `Cc1ccc(-c2cc(-c3ccc(C)cc3)[n+](-c3ccccc3)c(-c3ccc(C)cc3)c2)cc1`, in assay [1], the IC50 was > 100 µM (inactive). Also, the pIC50 in assay [2] (setting [3]) and in assay [2] (setting [4]) was less than 4.00 in each case.
Take `CN1CCC(N(C)S(=O)(=O)c2ccc(NC(=O)COc3ccc(Br)cc3Cl)cc2)CC1`: the pIC50 in assay [1] is 4.73; in assay [2] (setting [3]) it was 4.64; in assay [2] (setting [4]), 4.84.
Take `O=C(c1ccccc1)N(C(=O)c1ccccc1)c1ncnc2c1C(c1ccccc1)c1c(ccc3ccccc13)O2` (stereo not given): the IC50 entry in assay [1] is “inactive”. The negative-log IC50 (pIC50) is 5.36 in assay [2] (setting [3]) and less than 4.00 in assay [2] (setting [4]).
For `COc1cc(/C=C/C(=O)N2CCC=CC2=O)cc(OC)c1OC`, the negative logarithm of the IC50 (pIC50) is 4.85 in assay [1], 4.80 in assay [2] (setting [3]) and 4.92 in assay [2] (setting [4]).
The matching figures for `CC1=NN(c2cccc(C(=O)O)c2)C(=O)/C1=C\C=C/c1ccccc1`: 4.83, 4.75 and 4.92.
On to `COc1ccc2sc(N(CCCN(C)C)C(=O)c3ccc(S(=O)(=O)N4CCCc5ccccc54)cc3)nc2c1`, for which the IC50 result in assay [1] is “inactive”. The figures for the pIC50 in assay [2] (setting [3]) and in assay [2] (setting [4]) were 4.68 and 4.66, respectively.
On to `CCc1ccc(OCCNc2cc(N3CCNC(C)C3)ccc2[N+](=O)[O-])cc1` (stereo not given), for which the results for the pIC50 in assay [1], in assay [2] (setting [3]) and in assay [2] (setting [4]) were 4.90, 4.79 and 5.05, respectively.
As for `O=C1OCCC1Sc1nnc(-c2ccc(Cl)cc2Cl)o1` (stereo not given), the IC50 entry in assay [1] is “inactive”. Besides, the negative-log IC50 (pIC50) in assay [2] (setting [3]) is 5.17; in assay [2] (setting [4]) it was 4.45.
`COc1cccc(-c2cnc3c(NC=O)cc(-c4cccc(C(=O)N(C)C)c4)cn23)c1`: the negative logarithm of the IC50 (pIC50) was 4.73 in assay [1], 4.70 in assay [2] (setting [3]) and 4.75 in assay [2] (setting [4]).
The matching figures for `CC[C@@H](O)C[C@H]1CCC[C@@]2(C[C@@H]3OC(=O)/C=C/[C@@](C)(O)[C@@H](O)[C@H](C)[C@@H](O)[C@H](OC4CCC(N(C)C)C(C)O4)[C@@H](O)[C@](C)(O)CCCCC/C=C/[C@@H]4CC(C)(C)O[C@@]4(O)C[C@H](O2)[C@H]3C)O1` (stereo not given in full): 4.80, 4.74 and 4.87.
On to `COc1cccc(NC(=O)CN(C)C(=O)c2cccnc2Nc2cccc(C(F)(F)F)c2)c1`, for which, in assay [1], the IC50 result is “inactive”. Besides, the pIC50 in assay [2] (setting [3]) was 4.65; in assay [2] (setting [4]), 4.62.
The corresponding values for `O=C1c2ccccc2C(=O)C12OC2c1ccc(Cl)cc1Cl` (stereo not given) are “inactive”, 4.55 and 4.84.
The corresponding values for `CCN1CCN(Cc2c(O)ccc3c2O/C(=C\C=C\c2ccccc2)C3=O)CC1` are “inactive”, 4.33 and 4.94.
The corresponding values for `Oc1ccc(C[C@H]2CNCCN2CCc2cc(C(F)(F)F)cc(C(F)(F)F)c2)cc1` are “inactive”, 4.57 and 4.70.
In the case of `CN(C)CCCNc1ncnc2oc(-c3ccccc3)c(-c3ccccc3)c12`, the pIC50 in assay [1] was 4.80; in assay [2] (setting [3]), 4.78; in assay [2] (setting [4]), 4.83.
The matching figures for `CC1=CC2OC3CC4OC(=O)C=CC=CC(C(C)O)OCC(O)C(C)CC(=O)OCC2(CC1O)C4(C)C31CO1` (stereo not given): more than 6.70, more than 6.70 and more than 6.70.
For `CCc1nccn1C(=O)c1cnn2c(C(F)F)cc(-c3ccc(C)cc3)nc12`, the pIC50 in assay [1] was 4.76; in assay [2] (setting [3]), 4.73; in assay [2] (setting [4]), 4.81.
